Series [1] addresses human MCH-1 receptor (Homo sapiens (Human), UniProt Q99705). Briefly: Binding Assay for Human Melanin-Concentrating Hormone (MCH-1) Receptor. The following applies: radioligand displacement, membranes from CHO-K1 cells expressing human MCH-1 receptor; Ki from IC50 by Cheng Prusoff equation; read-out: MCH1 Ki. In short, it runs like this: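 Membranes from CHO-K1 cells stably expressing human MCH-1 incubated 60 min at 25 °C with 1.4 nM tritiated indazolyl-pyridinone radioligand in 50 mM Tris-HCl pH 7.4. Bound counts by filtration and scintillation; IC50 and nH by Hill fit, Ki by Cheng–Prusoff.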
Background: In a radioligand displacement assay an active substance lowers the binding of a labelled ligand.

Where a name gives a salt, the structure may show the parent alone.

human MCH-1 receptor, sequence (Q99705 whole entry): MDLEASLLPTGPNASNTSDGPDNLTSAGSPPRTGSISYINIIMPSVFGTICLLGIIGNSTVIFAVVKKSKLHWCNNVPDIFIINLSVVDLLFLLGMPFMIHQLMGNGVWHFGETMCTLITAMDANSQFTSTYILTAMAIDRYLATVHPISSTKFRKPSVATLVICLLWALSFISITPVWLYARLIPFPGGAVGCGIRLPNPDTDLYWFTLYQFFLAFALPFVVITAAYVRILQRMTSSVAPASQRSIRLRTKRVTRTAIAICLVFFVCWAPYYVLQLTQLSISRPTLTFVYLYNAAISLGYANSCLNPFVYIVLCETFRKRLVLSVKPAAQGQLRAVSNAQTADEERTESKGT

Molecule `O=c1cc(-c2ccc(C(F)(F)F)cn2)ccn1-c1ccc2c3c([nH]c2c1)CCNCC3` (as salt: hydrochloride) [Example 9, 1-(1,2,3,4,5,6-Hexahydroazepino[4,5-b]indol-8-yl)-4-(5-(trifluoromethyl)pyridin-2-yl)pyridin-2(1H)-one dihydrochloride] had a melting point of 288 to 290 °C.
Regarding `Cn1c2c(c3ccc(-n4ncc(OCc5ccc(F)cn5)cc4=O)cc31)CCNCC2` (as salt: hydrochloride) [Example 10, 5-((5-Fluoropyridin-2-yl)methoxy)-2-(6-methyl-1,2,3,4,5,6-hexahydroazepino[4,5-b]indol-8-yl)pyridazin-3(2H)-one dihydrochloride], the melting point lay in the range of 250 to 254 °C.
For `Cl.O=c1cc(OCc2ccccc2)ccn1-c1ccc2c3c([nH]c2c1)CCNCC3` [Example 7, 4-(Benzyloxy)-1-(1,2,3,4,5,6-hexahydroazepino[4,5-b]indol-8-yl)pyridin-2(1H)-one hydrochloride], the melting point lay in the range of 258 to 260 °C. Further, the Ki in series [1] stood at 6 nM.
For `CCN1CCc2c(n(C)c3cc(-n4ccc(OCc5ccccc5)cc4=O)ccc23)CC1.Cl` [Example 14, 4-(Benzyloxy)-1-(3-ethyl-6-methyl-1,2,3,4,5,6-hexahydroazepino[4,5-b]indol-8-yl)pyridin-2(1H)-one hydrochloride] the same measures were 246 to 248 °C and 9.6 nM.
In the case of `CC(C)N1CCc2c(n(C)c3cc(-n4ccc(OCc5ccccc5)cc4=O)ccc23)CC1.Cl` [Example 15, 4-(Benzyloxy)-1-(3-isopropyl-6-methyl-1,2,3,4,5,6-hexahydroazepino[4,5-b]indol-8-yl)pyridin-2(1H)-one hydrochloride], the melting point is 256 to 258 °C. Besides, in series [1], the Ki was determined as 10.4 nM.
For `CC(C)N1CCc2[nH]c3cc(-n4ccc(OCc5ccccc5)cc4=O)ccc3c2CC1.Cl` [Example 17, 4-(Benzyloxy)-1-(3-isopropyl-1,2,3,4,5,6-hexahydroazepino[4,5-b]indol-8-yl)pyridin-2(1H)-one hydrochloride], in that order: 152 to 155 °C and 7.2 nM.
As to `Cl.Cn1c2c(c3ccc(-n4ccc(OCc5ccccc5)cc4=O)cc31)CCCNC2` [Example 18, 4-(Benzyloxy)-1-(10-methyl-1,2,3,4,5,10-hexahydroazepino[3,4-b]indol-8-yl)pyridin-2(1H)-one hydrochloride], the melting point is 210 to 218 °C (dec.). For the same molecule, the Ki in series [1] was determined as 11.8 nM.
For `Cl.Cn1c2c(c3ccc(-n4ccc(OCc5ccc(F)cn5)cc4=O)cc31)CCCNC2` [Example 19, 4-((5-Fluoropyridin-2-yl)methoxy)-1-(10-methyl-1,2,3,4,5,10-hexahydroazepino[3,4-b]indol-8-yl)pyridin 2(1H)-one hydrochloride], in that order: 268 to 275 °C (dec.) and 14.8 nM.
With `Cl.Cn1c2c(c3ccc(-n4ccc(-c5ccc(C(F)(F)F)cn5)cc4=O)cc31)CCCNC2` [Example 20], the melting point is 288 to 296 °C (dec.).
Turning to `Cl.Cn1c2c(c3ccc(-n4ccc(OCc5ccccc5)cc4=O)cc31)CNCCC2` [Example 21, 4-(Benzyloxy)-1-(6-methyl-1,2,3,4,5,6-hexahydroazepino[4,3-b]indol-8-yl)pyridin-2(1H)-one hydrochloride], the melting point was 283 to 287 °C (dec.). The Ki in series [1] was 4.7 nM.
On to `Cl.Cn1c2c(c3ccc(-n4ccc(-c5ccc(C(F)(F)F)cn5)cc4=O)cc31)CNCCC2` [Example 23, 1-(6-Methyl-1,2,3,4,5,6-hexahydroazepino[4,3-b]indol-8-yl)-4-(5-(trifluoromethyl)pyridin-2-yl)pyridin-2(1H)-one hydrochloride], for which the melting point is 264 to 270 °C (dec.). Further, the Ki in series [1] turned out to be 4.7 nM.
Regarding `Cl.Cn1c2c(c3ccc(-n4ccc(-c5ccc(C(F)(F)F)cc5)cc4=O)cc31)CNCCC2` [Example 26], the melting point is 264 to 270 °C (dec.).
On to `Cl.Cn1c2c(c3ccc(-n4ccc(-c5ccc(C(F)(F)F)nc5)cc4=O)cc31)CNCCC2` [Example 27, 1-(6-Methyl-1,2,3,4,5,6-hexahydroazepino[4,3-b]indol-8-yl)-4-(6-(trifluoromethyl)pyridin-3-yl)pyridin-2(1H)-one hydrochloride], for which the melting point was 274 to 280 °C (dec.). For the same molecule, the Ki in series [1] worked out at 5.3 nM.
Regarding `Cl.Cn1c2c(c3ccc(-n4ccc(-c5ccc(C(F)(F)F)nn5)cc4=O)cc31)CNCCC2` [Example 28, 1-(6-Methyl-1,2,3,4,5,6-hexahydroazepino[4,3-b]indol-8-yl)-4-(6-(trifluoromethyl)pyridazin-3-yl)pyridin-2(1H)-one hydrochloride], the melting point was 248 to 252 °C (dec.). Besides, the Ki in series [1] turned out to be 10.9 nM.
For `CSc1ccc(-c2ccn(-c3ccc4c5c(n(C)c4c3)CCCNC5)c(=O)c2)cc1.Cl` [Example 32, 1-(6-Methyl-1,2,3,4,5,6-hexahydroazepino[4,3-b]indol-8-yl)-4-(4-(methylthio)phenyl)pyridin-2(1H)-one hydrochloride] the same measures were 250 to 255 °C (dec.) and 4.9 nM.
`Cc1ccc(-c2ccn(-c3ccc4c5c(n(C)c4c3)CCCNC5)c(=O)c2)cn1.Cl` [Example 33, 1-(6-Methyl-1,2,3,4,5,6-hexahydroazepino[4,3-b]indol-8-yl)-4-(6-methylpyridin-3-yl)pyridin-2(1H)-one hydrochloride]: the melting point was 245 to 250 °C (dec.). Besides, in series [1], the Ki is 17.5 nM.
As for `Cl.O=c1cc(-c2ccc(C(F)(F)F)cn2)ccn1-c1ccc2c3c([nH]c2c1)CCCNC3` [Example 36, 1-(1,2,3,4,5,6-Hexahydroazepino[4,3-b]indol-8-yl)-4-(5-(trifluoromethyl)pyridin-2-yl)pyridin-2(1H)-one hydrochloride], the melting point is 310 to 320 °C (dec.). Moreover, the Ki in series [1] worked out at 12.2 nM.
With `Cl.O=c1cc(-c2ccc(C(F)(F)F)nn2)ccn1-c1ccc2c3c([nH]c2c1)CCCNC3` [Example 37, 1-(1,2,3,4,5,6-Hexahydroazepino[4,3-b]indol-8-yl)-4-(6-(trifluoromethyl)pyridazin-3-yl)pyridin-2(1H)-one hydrochloride], the melting point is 310 to 315 °C (dec.). Moreover, in series [1], the Ki came to 29.2 nM.
For `Cn1c2c(c3ccc(-n4ccc(OCc5ccccc5)cc4=O)cc31)C(=O)NCCC2` [Example 38] the same measures were 178 to 181 °C and 100 nM.
As for `Cl.Cn1c2c(c3ccc(-n4ccc(OCc5ccc(F)cn5)cc4=O)cc31)CCNCC2` [Example 40], the melting point is 194 to 202 °C (dec.).
Take `Cl.Cn1c2c(c3ccc(-n4ccc(-c5ccc(C(F)(F)F)cc5)cc4=O)cc31)CCNCC2` [Example 41]: the melting point is 306 to 310 °C (dec.).
Regarding `Cl.Cn1c2c(c3ccc(-n4ncc(OCc5ccc(C(F)(F)F)nc5)cc4=O)cc31)CCNCC2` [Example 47, 2-(6-Methyl-1,2,3,4,5,6-hexahydroazepino[4,5-b]indol-8-yl)-5-((6-(trifluoromethyl)pyridin-3-yl)methoxy)pyridazin-3(2H)-one hydrochloride], the melting point was in the range of 270 to 274 °C. Moreover, the Ki in series [1] was 74 nM.
For `CC(=O)N1CCc2c(n(C)c3cc(-n4ccc(OCc5ccc(F)cn5)cc4=O)ccc23)CC1.Cl` [Example 48, 1-(3-Acetyl-6-methyl-1,2,3,4,5,6-hexahydroazepino[4,5-b]indol-8-yl)-4-((5-fluoropyridin-2-yl)methoxy)pyridin-2(1H)-one], in that order: 88 to 94 °C and 60 nM.
Turning to `CC(=O)N1CCc2[nH]c3cc(-n4ccc(OCc5ccccc5)cc4=O)ccc3c2CC1` [Example 54, 1-(3-Acetyl-1,2,3,4,5,6-hexahydroazepino[4,5-b]indol-8-yl)-4-(benzyloxy)pyridin-2(1H)-one], the melting point was in the range of 250 to 254 °C. Moreover, in series [1], the Ki came to 112 nM.
Turning to `Cl.Cn1c2c(c3ccc(-n4ccc(OCc5ncc(Cl)cc5Cl)cc4=O)cc31)CCNCC2` [Example 56, 4-((3,5-Dichloropyridin-2-yl)methoxy)-1-(6-methyl-1,2,3,4,5,6-hexahydroazepino[4,5-b]indol-8-yl)pyridin-2(1H)-one hydrochloride], the melting point was 178 to 180 °C. Moreover, the Ki in series [1] is 27 nM.
For `CC(=O)N1CCCc2c(c3ccc(-n4ccc(OCc5ccc(F)cn5)cc4=O)cc3n2C)C1` [Example 61, 1-(2-Acetyl-6-methyl-1,2,3,4,5,6-hexahydroazepino[4,3-b]indol-8-yl)-4-((5fluoropyridin-2-yl)methyoxy)pyridin-2(1H)-one], in that order: 78 to 83 °C and 57 nM.
For `CC(=O)N1CCCc2c(c3ccc(-n4ccc(-c5ccc(C(F)(F)F)nc5)cc4=O)cc3n2C)C1` [Example 62, 1-(2-Acetyl-6-methyl-1,2,3,4,5,6-hexahydroazepino[4,3-b]indol-8-yl)-4-(6-(trifluoromethyl)pyridin-3-yl)pyridin-2(1H)-one] the same measures were 156 to 162 °C and 60 nM.
`Cl.Cn1c2c(c3ccc(-n4ccc(OCc5ccc(Cl)cn5)cc4=O)cc31)CNCCC2` [Example 63, 4-((5-Chloropyridin-2-yl)methoxy)-1-(6-methyl-1,2,3,4,5,6-hexahydroazepino[4,3-b]indol-8-yl)pyridin-2(1H)-one hydrochloride] came in with a melting point of 260 to 266 °C. Further, the Ki in series [1] amounted to 5 nM.
In turn, `Cl.Cn1c2c(c3ccc(N4CCN(CCc5ccc(Cl)cc5)CC4=O)cc31)CNCCC2` [Example 64, 4-(4-Chlorophenethyl)-1-(6-methyl-1,2,3,4,5,6-hexahydroazepino[4,3-b]indol-8-yl)piperazin-2-one hydrochloride] yielded a melting point of 252 to 257 °C. Also, the Ki in series [1] was 4.6 nM.

What is called melting point is the temperature of the solid-liquid transition. As a reminder, the Ki is the dissociation constant of the complex between target and ligand, obtained from inhibition or displacement.

Source of the values: patent publication US8637501B2, “Azinone-substituted azepino[b]indole and pyrido-pyrrolo-azepine MCH-1 antagonists, methods of making, and use thereof” (Albany Molecular Research, Inc., priority 2009, dated 2014).
